From patent US11046731B2, “Zinc-binder based EBNA1-specific compounds” (priority 2018, dated 2021) come the findings set out here.

Data set [1] relates to EBV-positive NPC43, C666-1, Raji cells. Particulars: 1-20 μM, 5 days.
Data set [2] relates to Rta, BMRF1 and gp350/220 in EBV-positive NPC43 cells. As to the kind of experiment: Western blot of EBV lytic proteins. In kind it is cell-based, Epstein-Barr virus. Conditions: 10 μM, 7 days.
The next data set concerns BZLF1 (Zta) and BMRF1. As to the kind of experiment: IHC of EBV lytic proteins in C666-1-derived tumor tissues. In kind it is in vivo, Epstein-Barr virus.
Data set [3] has as its system EBV-negative HeLa xenografts. Conditions: 4 μg/injection every three days, 19 days.
Data set [4] has as its system EBV-positive C666-1 xenografts. As to the kind of experiment: C666-1 nude mice xenograft, intratumoral injection. In kind it is in vivo, BALB/c nude mice. Particulars: 18 days.

Numbered stars: 1 amine (or outer) side, 2 acyl side, 3 side chain; on linkers, the order of the positions; unused ones are H or OH. Square brackets hold non-standard residues; d marks the D form. Peptide text beside a SMILES is read from it. * marks the point of attachment. X2 = O=C(c1ccc(/C=C/c2ccc(N[*:1])cc2)cc1)[*:2]; X1 = O=C(CN(Cc1ccccn1)Cc1ccccn1)*

Regarding `CSCC[C@H](NC(=O)[C@H](Cc1ccccc1)NC(=O)[C@H](Cc1ccc(O)cc1)NC(=O)c1ccc(/C=C/c2ccc(NC(=O)CN(Cc3ccccn3)Cc3ccccn3)cc2)cc1)C(=O)N[C@H](C(=O)N[C@@H](Cc1ccccc1)C(=O)O)C(C)C` [ZRL5P2] (X1-[X2]YFMVF-OH), the “cytotoxicity / growth inhibition in EBV-positive cells” value in data set [1] is listed as “least efficient”. The “protein levels of Rta and BMRF1” value in data set [2] is given as “much weaker than that of ZRL5P4”. Besides, the “tumor areas positive for BMRF1 (IHC)” value with BZLF1 (Zta) and BMRF1 is recorded as 1.15%. Moreover, the “changes in body weights compared to the control” value in data set [3] is recorded as “did not cause any significant changes”. For the same compound, the “effect on tumor growth” value in data set [4] (4 μg/injection intra-tumoral twice weekly) is reported as “did not significantly affect tumor growth”. Further, the “changes in body or organ weights compared to the vehicle control” value in data set [4] (4 μg/injection) is recorded as “did not cause significant changes”.
